Measurements as given in patent publication US8293231B2, “Methods and compositions for treating ischemia” (Blue Blood Biotech Corp., priority 2005, dated 2012).

How the values were obtained:
Type in all cases: cell-based, human
[1] = system: MMP-1, MMP-2, MMP-3, and MMP-9 in HUVEC conditioned medium; assay: Gelatin and casein zymographies; conditions: gelatin zymography
Description: (§1) HUVECs were seeded at 80% confluence on 100-mm dishes in M199 medium. After 24 h, cells were rinsed with serum-free M199 twice and incubated in serum-free M199 with various concentrations of TMD23, VEGF (10 ng/mL), or PMA (70 ng/mL) for 12 h. The conditioned medium containing […] secreted proteins was analyzed by gelatin- and casein-based zymographies. The digested area appeared clear on a blue background, indicating the location of matrix metalloproteinase (MMP) activity. To further verify MMP caseinolytic activity, the casein-containing gel was incubated with incubation buffer containing 10 mM EDTA, an inhibitor of MMPs, to observe disappearance of the clear band. Plasminogen activator inhibitor (PAI) activity was measured by titrating samples with increasing amounts of tissue-type plasminogen activator (t-PA) (Boehringer Ingelheim) into a fixed volume of endothelial-cell-conditioned media.
as §1, with “zymographies. Lee O H, et al., Identification of angiogenic properties of insulin-like growth factor II in in vitro angiogenesis models. Brit J. Cancer. 2000; 82:385-391.” for “zymographies.”, “media. Shi G Y., et al., Plasmin and the regulation of tissue-type plasminogen activator biosynthesis in human endothelial cells. […]” for “media.”

[2] = system: PAI activity in conditioned media of HUVECs; assay: Plasminogen activator inhibitor (PAI) activity assay; conditions: 12 h; 100 or 1000 ng/mL TMD23, 70 ng/mL PMA, 10 ng/mL VEGF
Description: as §1
as §1, with “zymographies. Lee O H, et al., Identification of angiogenic properties of insulin-like growth factor II in in vitro angiogenesis models. Brit J. Cancer. 2000; 82:385-391.” for “zymographies.”, “media. Shi G Y., et al., Plasmin and the regulation of tissue-type plasminogen activator biosynthesis in human endothelial cells. […]” for “media.”

HUVECs = assay: Chemotaxis assay (Transwell)
Description: (§2) The chemotactic motility of HUVECs was assayed using Transwell (Costar) with 6.5-mm diameter polycarbonate filters (8-μm pore size). The lower filter surface was coated with 10 μg gelatin (Sigma-Aldrich). Various concentrations of TMD23 in the absence or presence of 10 μg/mL polyclonal rabbit anti-TMD23 antibody or 10 ng/mL vascular endothelial growth factor (VEGF) (R & D Systems, Inc.) in M199 were placed in the lower wells. One hundred mL cell suspension containing 1×10^5 cells was loaded into each of upper well. The chamber was incubated at 37° C. for 4 h. Cells were fixed with methanol and stained with 4′,6′-diamidino-2-phenylindole (DAPI). Chemotaxis was quantified with optical microscopy (Leica) at 100× magnification using MetaMorph imaging software (Universal Imaging Corporation) by counting the cells that migrated to the filter's lower side. Five random fields in each well were counted. Each sample was assayed in triplicate, and assays were repeated three times. To determine the role of extracellular signal-regulated kinase 1/2 (ERK1/2), p38 mitogen-activated protein kinase (MAPK), and phosphatidylinositol 3-kinase (PI3 kinase)-protein kinase B/Akt (Akt) in TMD23-mediated cell migration, assays were performed in the presence of U0126, a MAPK/ERK kinase (MEK) inhibitor, SB 203580, a p38 MAPK inhibitor, and LY 294002, a PI3 kinase inhibitor. Cell viability as determined by trypan blue staining was not altered by treatment. 00126 was purchased from Promega, with SB 203580 and LY 294002 from Calbiochem.
as §2, with “hundred μL” for “hundred mL”, “MAPK/ERK kinase-(MEK)” for “MAPK/ERK kinase (MEK)”, “treatment. U0126” for “treatment. 00126”

## TMD23: Recombinant human thrombomodulin fragment, amino acids Ala242-Ser515 of SEQ ID NO: 2: six EGF-like structures (D2) plus Ser/Thr-rich domain D3
[1]; 12 h
  Expression of MMP-2 and MMP-9: no significant effect
[1]; MMP-3 confirmed by caseinolytic zymography
  Expression of MMP-1/3: stimulated expression
[2]
  PAI activity in conditioned media of HUVECs: decreased significantly
HUVECs; 10 ng/mL TMD23
  Effect on HUVEC migration compared with VEGF (10 ng/mL): comparable with that of VEGF
HUVECs; 10 ng/mL TMD23, 4 h
  Migratory activity increased over the control: 80%
HUVECs; FIG. 2B
  Chemotactic response in HUVECs: markedly induced a dose-dependent chemotactic response
